25 compounds from patent US7910751B2, “Heterocyclidene acetamide derivative” (Mochida Pharmaceutical Co., Ltd., priority 2005, dated 2011) can be followed below.

Each structure is given as a SMILES string.

In this assay the target is T1, human TRPV1 (Homo sapiens, UniProt Q8NER1).
T1 construct: expressed in transfected cells; host or cells: CHO-K1
T1 sequence (Q8NER1 whole entry): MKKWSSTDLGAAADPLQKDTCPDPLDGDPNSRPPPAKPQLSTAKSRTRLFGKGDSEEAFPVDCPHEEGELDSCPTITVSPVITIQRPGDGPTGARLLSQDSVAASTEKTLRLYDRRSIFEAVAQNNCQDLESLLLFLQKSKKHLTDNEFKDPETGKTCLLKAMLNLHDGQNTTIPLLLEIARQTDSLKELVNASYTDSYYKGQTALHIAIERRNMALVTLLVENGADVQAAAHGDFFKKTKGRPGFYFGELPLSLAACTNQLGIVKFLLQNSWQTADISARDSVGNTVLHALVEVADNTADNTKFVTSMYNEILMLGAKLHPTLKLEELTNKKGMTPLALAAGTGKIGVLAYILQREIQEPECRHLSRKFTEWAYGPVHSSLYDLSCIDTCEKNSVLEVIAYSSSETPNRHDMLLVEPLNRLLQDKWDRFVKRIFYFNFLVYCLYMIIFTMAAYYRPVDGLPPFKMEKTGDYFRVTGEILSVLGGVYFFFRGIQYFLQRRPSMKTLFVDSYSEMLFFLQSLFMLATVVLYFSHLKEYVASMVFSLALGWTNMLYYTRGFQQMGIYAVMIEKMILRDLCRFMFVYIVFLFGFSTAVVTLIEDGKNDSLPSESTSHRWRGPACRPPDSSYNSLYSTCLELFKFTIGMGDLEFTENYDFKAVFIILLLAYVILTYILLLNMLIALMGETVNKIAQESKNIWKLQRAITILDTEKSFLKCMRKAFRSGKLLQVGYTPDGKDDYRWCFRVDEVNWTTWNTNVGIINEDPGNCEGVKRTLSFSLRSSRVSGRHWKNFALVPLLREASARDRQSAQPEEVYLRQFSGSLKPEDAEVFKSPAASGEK
The assay can be described thus: Measurement of capsaicin-induced Ca influx in human TRPV1 transformed CHO cell line using FDSS-6000. The settings on record: concentration at which the capsaicin concentration-reaction curve is shifted two times to the right, human TRPV1 transformed CHO cells. In kind it is cell-based.
In the case of `O=C(/C=C1\CCN(C(=O)CCC(F)(F)F)c2cc(C(F)(F)F)ccc21)Nc1cccc2c1CC(O)CC2` (stereo not shown) [Example 91, (E)-2-(1-(4,4,4-trifluorobutanoyl)-7-trifluoromethyl-2,3-dihydroquinolin-4(1H)-ylidene)-N-(7-hydroxy-5,6,7,8-tetrahydronaphthalen-1-yl)acetamide], the “A2 VALUE” was “A (compounds of the present invention having an A2 value of less than 100 nM are represented by A)”.

On to `O=C(/C=C1\CCNc2cc(C(F)(F)F)ccc21)NC1CCc2cccnc2C1` (stereo not shown) [Example 49, (E)-2-(7-trifluoromethyl-2,3-dihydroquinolin-4(1H)-ylidene)-N-(5,6,7,8-tetrahydroquinolin-7-yl)acetamide], for which the “A2 VALUE” was “B (compounds having an A2 value of 100 nM or more are represented by B)”. Next, `O=C(/C=C1\CCCOc2cc(C(F)(F)F)ccc21)Nc1ccc2c(c1)C(=O)NC2` [Example 166, (E)-2-(8-trifluoromethyl-3,4-dihydrobenzo[b]oxepin-5(2H)-ylidene)-N-(2,3-dihydro-isoindol-1-on-6-yl)acetamide]: “A (compounds of the present invention having an A2 value of less than 100 nM are represented by A)”; `O=C(/C=C1\CCN(c2ccc(Cl)cc2)c2cc(C(F)(F)F)ccc21)Nc1ccc2cccnc2c1` [Example 57, (E)-2-(1-(4-chlorophenyl)-7-trifluoromethyl-2,3-dihydro-4(1H)-ylidene)-N-(quinolin-7-yl)acetamide]: “A (compounds of the present invention having an A2 value of less than 100 nM are represented by A)”; `O=C(/C=C1\CCCOc2cc(C(F)(F)F)ccc21)Nc1ccc2c(c1)C(=O)OC2` [Example 24, (E)-2-(8-trifluoromethyl-3,4-dihydrobenzo[b]oxepin-5(2H)-ylidene)-N-(1,3-dihydro-1-oxoisobenzofuran-6-yl)acetamide]: “A (compounds of the present invention having an A2 value of less than 100 nM are represented by A)”. Regarding `O=C(/C=C1\CCOc2cc(C(F)(F)F)ccc21)Nc1cccc2c1CC(O)CC2` (stereo not shown) [Example 72, (E)-2-(7-trifluoromethyl-chroman-4-ylidene)-N-(7-hydroxy-5,6,7,8-tetrahydronaphthalen-1-yl)acetamide], the “A2 VALUE” is given as “A (compounds of the present invention having an A2 value of less than 100 nM are represented by A)”. Next, `O=C(/C=C1\CCCOc2cc(C(F)(F)F)ccc21)Nc1cccc2c1CC(O)CN2` (stereo not shown) [Example 68, (E)-2-(8-trifluoromethyl-3,4-dihydrobenzo[b]oxepin-5(2H)-ylidene)-N-(3-hydroxy-1,2,3,4-tetrahydroquinolin-5-yl)acetamide]: “A (compounds of the present invention having an A2 value of less than 100 nM are represented by A)”; `CN1CCC/C(=C\C(=O)Nc2cccc3c2CC(O)CC3)c2ccc(C(F)(F)F)cc21` (stereo not shown) [Example 199, (E)-2-(1-methyl-8-trifluoromethyl-1,2,3,4-tetrahydro-5H-benzo[b]azepin-5-ylidene)-N-(7-hydroxy-5,6,7,8-tetrahydronaphthalen-1-yl)acetamide]: “A (compounds of the present invention having an A2 value of less than 100 nM are represented by A)”. With `O=C(/C=C1\CCCOc2cc(C(F)(F)F)ccc21)Nc1cccc(N2CCCC2CO)c1` (stereo not shown) [Example 229], the “A2 VALUE” is listed as “B (compounds having an A2 value of 100 nM or more are represented by B)”. Then `O=C(/C=C1\CCCOc2cc(C(F)(F)F)ccc21)Nc1cccc2c1CC(O)C(O)C2` (stereo not drawn) [Example 65, (E)-2-(8-trifluoromethyl-3,4-dihydrobenzo[b]oxepin-5-(2H)-ylidene)-N-(trans-6,7-dihydroxy-5,6,7,8-tetrahydronaphthalen-1-yl)acetamide], with “A (compounds of the present invention having an A2 value of less than 100 nM are represented by A)”; and `CC(C)c1ccc2c(c1)OCC/C2=C\C(=O)Nc1cccc2c1CC(O)CC2` (stereo not shown) [Example 206, (E)-2-(7-isopropyl-chroman-4-ylidene)-N-(7-hydroxy-5,6,7,8-tetrahydronaphthalen-1-yl)acetamide], with “A (compounds of the present invention having an A2 value of less than 100 nM are represented by A)”.

Regarding `CC1(C(=O)N2CC/C(=C\C(=O)Nc3cccc4c3CC(O)CC4)c3ccc(C(F)(F)F)cc32)CC1` (stereo not shown) [Example 89, (E)-2-(1-(1-methylcyclopropanecarbonyl)-7-trifluoromethyl-2,3-dihydroquinolin-4(1H)-ylidene)-N-(7-hydroxy-5,6,7,8-tetrahydronaphthalen-1-yl)acetamide], the “A2 VALUE” is reported as “A (compounds of the present invention having an A2 value of less than 100 nM are represented by A)”. Next, `CCC(F)(F)CC(=O)N1CC/C(=C\C(=O)Nc2cccc3c2CC(O)CC3)c2ccc(C(F)(F)F)cc21` (stereo not shown) [Example 117, (E)-2-(1-(3,3-difluoropentanoyl)-7-trifluoromethyl-2,3-dihydroquinolin-4(1H)-ylidene)-N-(7-hydroxy-5,6,7,8-tetrahydronaphthalen-1-yl)acetamide]: “A (compounds of the present invention having an A2 value of less than 100 nM are represented by A)”. Next, `Cc1nc(-c2ccc(Cl)cc2)sc1CNC(=O)/C=C1\CCCOc2cc(C(F)(F)F)ccc21` [Example 39, (E)-N-((2-(4-chlorophenyl)-4-methylthiazol-5-yl)methyl)-2-(8-trifluoromethyl-3,4-dihydrobenzo[b]oxepin-5(2H)-ylidene)acetamide]: “B (compounds having an A2 value of 100 nM or more are represented by B)”; `O=C(/C=C1\CCCOc2cc(C(F)(F)F)ccc21)Nc1cccc2c1CC(O)CC2` (stereo not shown) [Example 62, (E)-2-(8-trifluoromethyl-3,4-dihydrobenzo[b]oxepin-5-(2H)-ylidene)-N-(7-hydroxy-5,6,7,8-tetrahydronaphthalen-1-yl)acetamide]: “A (compounds of the present invention having an A2 value of less than 100 nM are represented by A)”; `O=C(/C=C1\CCCOc2cc(C(F)(F)F)ccc21)Nc1ccc(S(=O)(=O)N2CCOCC2)cc1` [Example 26, (E)-2-(8-trifluoromethyl-3,4-dihydrobenzo[b]oxepin-5(2H)-ylidene)-N-(4-(4-morpholinylsulfonyl)phenyl)acetamide]: “B (compounds having an A2 value of 100 nM or more are represented by B)”. Next, `O=C(/C=C1\CCN(C(=O)C2CCCCC2)c2cc(C(F)(F)F)ccc21)Nc1ccc2cccnc2c1` [Example 52, (E)-2-(7-trifluoromethyl-2,3-dihydro-1-cyclohexanecarbonylquinolin-4(1H)-ylidene)-N-(quinolin-7-yl)acetamide]: “A (compounds of the present invention having an A2 value of less than 100 nM are represented by A)”. Turning to `O=C(/C=C1\CCN(C(=O)Cc2ccccc2)c2cc(C(F)(F)F)ccc21)Nc1cccc2c1CC(O)CC2` (stereo not shown) [Example 94, (E)-2-(1-phenylacetyl-7-trifluoromethyl-2,3-dihydroquinolin-4(1H)-ylidene)-N-(7-hydroxy-5,6,7,8-tetrahydronaphthalen-1-yl)acetamide], the “A2 VALUE” is “A (compounds of the present invention having an A2 value of less than 100 nM are represented by A)”. Then `CC1(C)C/C(=C\C(=O)Nc2cccc3c2CC(O)CN3)c2ccc(C(F)(F)F)cc2O1` (stereo not shown) [Example 244, (E)-2-(7-trifluoromethyl-2,2-dimethylchroman-4-ylidene)-N-(3-hydroxy-1,2,3,4-tetrahydroquinolin-5-yl)acetamide], with “A (compounds of the present invention having an A2 value of less than 100 nM are represented by A)”; and `O=C(C=C1COCc2cc(C(F)(F)F)ccc21)Nc1cccc2c1CC(O)CC2` (stereo in doubt) [Example 237, (E)-2-(7-trifluoromethyl-isochroman-4-ylidene)-N-(7-hydroxy-5,6,7,8-tetrahydronaphthalen-1-yl)acetamide], with “A (compounds of the present invention having an A2 value of less than 100 nM are represented by A)”; and `O=C(/C=C1\CCCOc2cc(C(F)(F)F)ccc21)Nc1cccc2c1CC(O)C(=O)N2` (stereo not shown) [Example 67, (E)-2-(8-trifluoromethyl-3,4-dihydrobenzo[b]oxepin-5(2H)-ylidene)-N-(3-hydroxy-2-oxo-1,2,3,4-tetrahydroquinolin-5-yl)acetamide], with “A (compounds of the present invention having an A2 value of less than 100 nM are represented by A)”. Consider `O=C(/C=C1\CCCOc2cc(C(F)(F)F)ccc21)Nc1cccc2[nH]ncc12` [Example 253, (E)-2-(8-trifluoromethyl-3,4-dihydrobenzo[b]oxepin-5(2H)-ylidene)-N-(1H-indazol-4-yl)acetamide], for which the “A2 VALUE” is “A (compounds of the present invention having an A2 value of less than 100 nM are represented by A)”. Turning to `CCC(F)(F)C(=O)N1CC/C(=C\C(=O)Nc2cccc3c2CC(O)C(=O)N3)c2ccc(C(F)(F)F)cc21` (stereo not shown) [Example 185, (E)-2-(1-(2,2-difluorobutanoyl)-7-trifluoromethyl-2,3-dihydroquinolin-4(1H)-ylidene)-N-(3-hydroxy-2-oxo-1,2,3,4-tetrahydroquinolin-5-yl)acetamide], the “A2 VALUE” is “A (compounds of the present invention having an A2 value of less than 100 nM are represented by A)”. Next, `O=C(/C=C1\CCCOc2cc(C(F)(F)F)ccc21)Nc1n[nH]c2ccccc12` [Example 42, (E)-2-(8-trifluoromethyl-3,4-dihydrobenzo[b]oxepin-5(2H)-ylidene)-N-(1H-indazol-3-yl)acetamide]: “B (compounds having an A2 value of 100 nM or more are represented by B)”; `O=C(/C=C1/CCCOc2cc(C(F)(F)F)ccc21)Nc1ccc2cccnc2c1` [Example 247, (Z)-2-(8-trifluoromethyl-3,4-dihydrobenzo[b]oxepin-5(2H)-ylidene)-N-(quinolin-7-yl)acetamide]: “A (compounds of the present invention having an A2 value of less than 100 nM are represented by A)”.
